These are literature values, as cited in patent US20220387349A1, “TREATMENT OF CUTANEOUS ADVERSE EFFECTS CAUSED BY ONCOLOGICAL THERAPY WITH TOPICAL TAPINAROF COMPOSITIONS” (Sol-Gel Technologies Ltd, priority 2019, published 2022).

Structures are written as SMILES. Where two headings read alike, the source gives them in different places.

The test system of data set [1] is interleukin-6 and interleukin-17A. As to conditions: mouse models.
Data set [2] shares this test system. Conditions: in vitro human skin studies.
The conditions of data set [3]: psoriasis treatment, as a single drug; placebo 20.2%.
The mark [4] stands for this setting: 1% tapinarof arm compared with the 0.5% arm or vehicle.

Turning to `CC(C)c1c(O)cc(/C=C/c2ccccc2)cc1O` [Tapinarof, 3,5-dihydroxy-4-isopropyl-trans-stilbene], in data set [1], the “effect on skin barrier function” value is “enhance skin barrier function”; the “effect on specific proinflammatory mediators, including interleukin-6 and interleukin-17A” value was “inhibit specific proinflammatory mediators”. Further, in data set [2], the “effect on skin barrier function” value is on record as “enhance skin barrier function”; the “effect on specific proinflammatory mediators, including interleukin-6 and interleukin-17A” value is listed as “inhibit specific proinflammatory mediators”. Also, under setting [4], the efficacy entry is on record as “higher efficacy” and the onset of action entry is “quicker onset of action”. Besides, the “most frequent adverse events” value (topical tapinarof) is “folliculitis and contact dermatitis”. The “side-effects at higher concentrations” value (topical, higher than 1% w/w tapinarof) is “undesirable side-effects”. Moreover, the adverse effects in data set [3] was 44.5%.

Take `C=C1/C(=C\C=C2/CCC[C@]3(C)[C@@H]([C@H](C)/C=C/[C@@H](O)C4CC4)CC[C@@H]23)C[C@@H](O)C[C@@H]1O` [calcipotriene]: the adverse effects in data set [3] is given as 19.5%.
